This is an account of results in ChEMBL document CHEMBL4396905, “Design, synthesis and in vitro evaluation of 6-amide-2-aryl benzoxazole/benzimidazole derivatives against tumor cells by inhibiting VEGFR-2 kinase” (Eur J Med Chem, 2019).

Test [1] concerns the target T1, Vascular endothelial growth factor receptor 2 (Homo sapiens, UniProt P35968). Kind of test: Inhibition of VEGFR2 (unknown origin) using Poly (Glu, Tyr) 4:1 as substrate preincubated with substrate followed by enzyme challenge for 1 hr by ELISA.
The test system of test [2] is HepG2. Put plainly: Antiproliferative activity against human HepG2 cells expressing VEGFR2 assessed as reduction in cell growth incubated for 48 hrs by MTT assay. The class given is functional, cell-based. As to conditions: HepG2, 48 h.
Test [3] has as its system A549. Put plainly: Antiproliferative activity against human A549 cells expressing EGFR assessed as reduction in cell growth incubated for 48 hrs by MTT assay. The format is functional, cell-based. As to conditions: A549, 48 h.
Test [4] deals with T1, Vascular endothelial growth factor receptor 2. The settings on record: at 1 µM.
Description: Inhibition of VEGFR2 (unknown origin) using Poly (Glu, Tyr) 4:1 as substrate at 1 uM preincubated with substrate followed by enzyme challenge for 1 hr by ELISA relative to control
For test [5], the system named is MDA-MB-231. Put plainly: Antiproliferative activity against human MDA-MB-231 cells expressing EGFR assessed as reduction in cell growth incubated for 48 hrs by MTT assay. The format is functional, cell-based. As to conditions: MDA-MB-231, 48 h.
In test [6] the target is Epidermal growth factor receptor (Homo sapiens) (UniProt P00533). Put plainly: Inhibition of EGFR (unknown origin) using Poly (Glu, Tyr) 4:1 as substrate at 1 uM preincubated with substrate followed by enzyme challenge for 1 hr by ELISA relative to control.
Sequence of Epidermal growth factor receptor (Homo sapiens) (P00533 whole entry): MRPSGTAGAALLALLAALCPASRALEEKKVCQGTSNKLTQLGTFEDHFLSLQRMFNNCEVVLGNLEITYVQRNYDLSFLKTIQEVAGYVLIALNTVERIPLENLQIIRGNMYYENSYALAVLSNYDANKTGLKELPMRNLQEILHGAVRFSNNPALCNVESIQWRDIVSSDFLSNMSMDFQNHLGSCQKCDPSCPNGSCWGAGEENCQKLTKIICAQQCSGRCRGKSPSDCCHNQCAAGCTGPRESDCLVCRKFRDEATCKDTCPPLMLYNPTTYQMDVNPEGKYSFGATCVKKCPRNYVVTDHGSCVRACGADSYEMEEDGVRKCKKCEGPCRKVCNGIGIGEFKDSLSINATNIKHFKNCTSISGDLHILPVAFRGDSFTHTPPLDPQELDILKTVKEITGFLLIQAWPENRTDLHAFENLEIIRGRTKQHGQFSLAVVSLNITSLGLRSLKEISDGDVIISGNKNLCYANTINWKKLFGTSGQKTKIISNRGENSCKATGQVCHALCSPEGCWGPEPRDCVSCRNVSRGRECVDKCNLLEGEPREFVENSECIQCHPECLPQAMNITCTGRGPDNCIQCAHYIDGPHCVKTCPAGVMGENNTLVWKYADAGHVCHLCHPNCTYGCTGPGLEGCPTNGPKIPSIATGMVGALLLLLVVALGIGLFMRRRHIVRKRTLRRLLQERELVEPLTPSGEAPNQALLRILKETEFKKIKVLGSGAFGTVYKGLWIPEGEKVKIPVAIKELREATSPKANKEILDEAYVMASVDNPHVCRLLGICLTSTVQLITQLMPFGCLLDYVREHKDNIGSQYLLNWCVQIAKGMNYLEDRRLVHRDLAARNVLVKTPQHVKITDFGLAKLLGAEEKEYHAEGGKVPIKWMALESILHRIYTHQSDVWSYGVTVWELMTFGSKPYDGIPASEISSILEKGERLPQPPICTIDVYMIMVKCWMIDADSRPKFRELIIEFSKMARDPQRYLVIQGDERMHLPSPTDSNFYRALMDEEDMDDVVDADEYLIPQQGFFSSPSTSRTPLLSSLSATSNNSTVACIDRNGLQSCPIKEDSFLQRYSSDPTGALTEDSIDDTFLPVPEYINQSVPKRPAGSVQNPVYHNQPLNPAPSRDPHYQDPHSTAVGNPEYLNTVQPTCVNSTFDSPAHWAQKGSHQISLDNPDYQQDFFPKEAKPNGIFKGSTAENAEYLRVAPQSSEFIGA
Test [7] deals with HUVEC. Put plainly: Antiproliferative activity against human HUVEC cells expressing VEGFR2 assessed as reduction in cell growth incubated for 48 hrs by MTT assay. The class given is functional, cell-based.

T1 sequence (P35968 whole entry): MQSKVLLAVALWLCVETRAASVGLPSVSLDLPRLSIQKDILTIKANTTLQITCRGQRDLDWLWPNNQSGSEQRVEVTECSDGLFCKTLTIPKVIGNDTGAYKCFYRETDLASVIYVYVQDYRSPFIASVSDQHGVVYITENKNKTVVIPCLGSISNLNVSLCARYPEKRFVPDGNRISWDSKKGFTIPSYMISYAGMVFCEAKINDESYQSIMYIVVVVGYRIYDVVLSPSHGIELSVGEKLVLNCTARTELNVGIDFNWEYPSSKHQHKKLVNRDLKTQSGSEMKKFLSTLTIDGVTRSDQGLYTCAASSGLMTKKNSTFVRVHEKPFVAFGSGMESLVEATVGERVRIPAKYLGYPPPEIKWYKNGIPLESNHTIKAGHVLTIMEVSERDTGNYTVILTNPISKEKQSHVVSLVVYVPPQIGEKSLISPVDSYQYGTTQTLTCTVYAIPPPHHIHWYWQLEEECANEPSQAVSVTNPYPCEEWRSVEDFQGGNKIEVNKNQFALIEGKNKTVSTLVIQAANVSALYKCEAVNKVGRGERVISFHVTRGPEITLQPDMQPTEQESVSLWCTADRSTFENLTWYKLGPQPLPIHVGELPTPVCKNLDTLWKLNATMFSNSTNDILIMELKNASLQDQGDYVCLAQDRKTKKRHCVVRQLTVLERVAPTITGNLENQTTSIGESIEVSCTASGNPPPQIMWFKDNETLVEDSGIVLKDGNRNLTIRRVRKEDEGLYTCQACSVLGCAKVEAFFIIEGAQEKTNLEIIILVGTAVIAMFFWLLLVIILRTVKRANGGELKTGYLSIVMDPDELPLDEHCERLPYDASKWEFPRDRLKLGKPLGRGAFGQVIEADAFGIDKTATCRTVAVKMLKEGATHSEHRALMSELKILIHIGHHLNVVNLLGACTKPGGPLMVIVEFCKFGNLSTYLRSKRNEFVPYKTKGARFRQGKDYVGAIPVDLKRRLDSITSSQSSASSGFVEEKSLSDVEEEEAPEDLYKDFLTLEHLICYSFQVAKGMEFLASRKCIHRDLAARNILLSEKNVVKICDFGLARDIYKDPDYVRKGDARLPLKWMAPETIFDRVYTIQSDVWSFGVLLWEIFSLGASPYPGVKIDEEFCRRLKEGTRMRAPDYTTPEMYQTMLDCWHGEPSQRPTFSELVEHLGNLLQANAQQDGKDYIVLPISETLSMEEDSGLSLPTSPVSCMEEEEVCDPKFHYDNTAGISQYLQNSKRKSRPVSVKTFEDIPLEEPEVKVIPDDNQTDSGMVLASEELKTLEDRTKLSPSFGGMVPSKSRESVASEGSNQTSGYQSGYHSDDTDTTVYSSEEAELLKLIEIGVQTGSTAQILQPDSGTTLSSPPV

As for `COc1cc(CC(=O)Nc2ccc3oc(-c4ccccc4)nc3c2)cc(OC)c1OC`, the IC50 in test [1] is 0.357 µM; in test [2] it was 26.4 µM; in test [3], 93.4 µM; in test [5], 79.5 µM; in test [7], 19.2 µM. For the same compound, the inhibition is 89.3% in test [4] and 47.3% in test [6].
As for `Cc1ccc(CC(=O)Nc2ccc3oc(-c4ccccc4F)nc3c2)cc1`, the IC50 in test [1] was determined as 0.233 µM; in test [2], 39.2 µM; in test [3], 83.3 µM; in test [5], 93.7 µM; in test [7], 12.8 µM. Moreover, the inhibition is 97.3% in test [4] and 39.5% in test [6].
As for `Cc1ccc(CC(=O)Nc2ccc3[nH]c(-c4ccc(Cl)cc4)nc3c2)cc1`, the IC50 in test [1] was determined as 0.0737 µM; in test [2] it was 5.56 µM; in test [3] it was 59.6 µM; in test [5], 63.2 µM; in test [7], 3.21 µM. Besides, the inhibition in test [4] was found to be 100%; in test [6], 48.3%.
For the compound `Cc1ccc(CC(=O)Nc2ccc3oc(-c4ccccc4Cl)nc3c2)cc1`, the IC50 in test [1] came out at 0.489 µM; in test [2], 36.3 µM; in test [3] it was 64.4 µM; in test [5], 47.7 µM; in test [7] it was 16.3 µM. Further, the inhibition was found to be 93.5% in test [4] and 47.5% in test [6].
With `COc1ccc(CC(=O)Nc2ccc3oc(-c4ccc(Cl)cc4)nc3c2)cc1OC`, the IC50 in test [1] was 0.386 µM; in test [2] it was 24.3 µM; in test [3], above 100 µM; in test [5] it was above 100 µM; in test [7], 11.4 µM. For the same compound, the inhibition came to 92.6% in test [4] and 52.2% in test [6].
As for `COc1ccc(CC(=O)Nc2ccc3oc(-c4ccccc4F)nc3c2)cc1`, the IC50 in test [1] is 0.166 µM; in test [2], 37.3 µM; in test [3], above 100 µM; in test [5] it was above 100 µM; in test [7] it was 14.2 µM. The inhibition came out at 94.6% in test [4] and 42.8% in test [6].
On to `O=C(Nc1ccc2[nH]c(-c3ccc(Cl)cc3)nc2c1)c1ccc(Cl)c(F)c1`, for which the concentration for half-maximal inhibition (IC50) in test [1] is 0.988 µM; in test [2], 26.3 µM; in test [3] it was 36.6 µM; in test [5], 69.4 µM; in test [7] it was 13.4 µM. Also, the inhibition in test [4] is 87.5%; in test [6] it was 45.2%.
Regarding `COc1ccc(CC(=O)Nc2ccc3oc(-c4ccccc4)nc3c2)cc1OC`, the IC50 was found to be 0.579 µM in test [1]; 16.4 µM in test [2]; 89.2 µM in test [3]; 94.3 µM in test [5]; 18.4 µM in test [7]. In addition, the inhibition in test [4] came out at 83.5%; in test [6] it was 37.2%.
On to `COc1ccc(CC(=O)Nc2ccc3oc(-c4ccccc4Cl)nc3c2)cc1`, for which the IC50 in test [1] is 0.444 µM; in test [2], 30.8 µM; in test [3], above 100 µM; in test [5], 76.2 µM; in test [7], 15.4 µM. The inhibition stood at 90.1% in test [4] and 43.8% in test [6].
As to `COc1ccc(CC(=O)Nc2ccc3oc(-c4ccc(Cl)cc4)nc3c2)cc1`, the IC50 in test [1] stood at 0.0973 µM; in test [2] it was 8.22 µM; in test [3], 74.4 µM; in test [5] it was 74.3 µM; in test [7], 5.25 µM. In addition, the inhibition in test [4] came out at 102%; in test [6] it was 49.4%.
With `COc1cc(CC(=O)Nc2ccc3oc(-c4ccc(Cl)cc4)nc3c2)cc(OC)c1OC`, the IC50 is 0.259 µM in test [1]; 28.2 µM in test [2]; above 100 µM in test [3]; above 100 µM in test [5]; 13.3 µM in test [7]. Besides, the inhibition stood at 91.5% in test [4] and 58.9% in test [6].
For `COc1cc(CC(=O)Nc2ccc3[nH]c(-c4ccc(Cl)cc4)nc3c2)cc(OC)c1OC`, the half-inhibitory concentration (IC50) in test [1] was 0.419 µM; in test [2], 3.43 µM; in test [3], 36.8 µM; in test [5], 75.9 µM; in test [7] it was 7.32 µM. The figures for the inhibition in test [4] and in test [6] were 90.2% and 43.1%, respectively.
On to `O=C(Nc1ccc2oc(-c3ccc(Cl)cc3)nc2c1)c1ccc(Cl)c(Br)c1`, for which the IC50 in test [1] is 0.338 µM; in test [2] it was 37 µM; in test [3] it was above 100 µM; in test [5], above 100 µM; in test [7], 13.4 µM. Also, the inhibition in test [4] came to 90.2%; in test [6], 44.1%.
On to `Cc1ccc(CC(=O)Nc2ccc3oc(-c4ccccc4Br)nc3c2)cc1`, for which the IC50 came out at 0.842 µM in test [1]; 33.1 µM in test [2]; 40.2 µM in test [3]; 74.3 µM in test [5]; 23.6 µM in test [7]. The inhibition in test [4] was found to be 89.1%; in test [6], 39.1%.
As to `O=C(Nc1ccc2[nH]c(-c3ccc(Cl)cc3)nc2c1)c1ccc(Cl)c(Br)c1`, the IC50 in test [1] is 0.542 µM; in test [2], 12 µM; in test [3], 30.4 µM; in test [5] it was 74.4 µM; in test [7], 7.61 µM. The inhibition in test [4] was determined as 93.8%; in test [6], 40.8%.
